Test [1] concerns BALB/c (H-2d) mice. Nature of the test: Isotype ELISA of β-gal-specific IgG1 and IgG2a in sera of vaccinated mice. It is filed as in vivo. Here is the method:
Isotyp ELISA: 96-well Nunc-Immuno MaxiSorp assay plates (Nunc, Roskilde, Denmark) were coated with 100 μl of β-gal (Boehringer, Mannheim, Germany) at 5 μg/ml in 0.05 M carbonate buffer (pH 9,6) per well. Serial two-fold dilutions of sera or lavages in PBS with 1% BSA and 0.05% Tween 20 were added (100 μl/well), and plates incubated for 2 h at 37° C. After washing, biotin-conjugated rat anti-mouse IgG1 or IgG2a (Pharmingen, Hamburg, Germany) were added to determine IgG subclasses. Plates were incubated for an additional 1 h at 37° C. After four washes, 100 μl of peroxidase-conjugated streptavidin (Pharmingen) was added to cells and plates incubated at 37° C. for 30 min. After four washes, reactions were developed with ABTS in 0.1 M citrate-phosphate buffer (pH 4.35) containing 0.01% H2O2. To determine the concentration of IgG subclasses in serum, standard curves were obtained by coating the wells with an isotype-specific goat anti-mouse IgG, and then by incubating with purified mouse IgG1 or IgG2 antibodies (Dianova, Hamburg, Germany).
The pattern of the different subclasses of the β-gal antigen-specific IgG isotypes present in the sera of vaccinated mice is shown in FIG. 12. […] The protocol for vaccination was identical to the protocol described in Example 3. […] The data represents the average titer of a group of 5 animals.

Test [2] concerns spleen cells. Nature of the test: [3H]thymidine proliferation of spleen cells from vaccinated mice restimulated in vitro with β-gal. The class given is in vivo. The settings on record: for T cell proliferation after i.n. and s.c. administration: versus β-gal alone; for proliferation of spleen cells, i.n. immunization / proliferation of spleen cells, s.c. immunization: day 38, in vitro restimulation with β-gal; for proliferation of spleen cells, i.n. immunization: low amounts of antigen (FIG. 6); for proliferation of spleen cells, s.c. immunization: [3H]thymidine (FIG. 6). On the procedure:
Experimental protocol: Spleens were removed and pooled for analysis of cellular immune responses. Cells were grown in RPMI 1640 supplemented with 10% fetal calf serum, 100 U/ml of penicillin, 50 μg/ml of streptomycin, 5×10^−5 M 2-mercaptoethanol and 1 mM L-glutamine (GIBCO BRL, Karlsruhe, Germany) and maintained at 37° C. in a humidified 5% CO2 atmosphere. Spleen cell suspensions were adjusted to 5×10^6 cells/ml in complete medium, cells were seeded with 100 μl per well in a flat-bottomed 96-well microtiter plate (Nunc) and plates were incubated for 4 days in the presence of different concentrations of soluble β-gal. That is, T cell mediated immune responses were investigated at day 38 by measuring the proliferation after in vitro restimulation with β-Gal of cells which have been recovered from spleens before. Said spleen cells were obtained from vaccinated mice—said mice where immunized as described in Example 2—and incubated in the presence of different concentrations of the soluble β-Gal antigen. Each concentration was tested in quadruplicates. During the final 18 h of culture, 1 μCi of [3H]thymidine (Amersham International, Freiburg, Germany) was added to each well. Cells were then harvested on paper filters (Filtermat A; Wallac, Freiburg, Germany) by using a cell harvester (Inotech, Wohlen, Switzerland), and the amount of incorporated [3H]thymidine into the DNA of proliferating cells was determined by a β-scintillation counter (Wallac 1450, Micro-Trilux). The results are expressed as the arithmetic mean of [^3H]thymidine uptake in cpm.
Thirty eight days following vaccination, spleens cells were purified, re-stimulated in vitro in the presence of various amounts of β-galactosidase and their proliferative capacity was estimated by measuring the incorporation of [3H]thymidine into their DNA using a β-scintillation counter.

For test [3], the system named is spleen cells. Nature of the test: ELISPOT of cytokine producing spleen cells from vaccinated mice. It is filed as in vivo. The following applies: for expression of various cytokines: administered as an adjuvant (FIG. 10); for splenic IL-2 producing cells / splenic IL-4 producing cells: i.n. and s.c. route, restimulation with β-Gal protein; for antigen-specific IFNγ secreting cells / antigen-specific IL-2 secreting cells / antigen-specific IL-4 secreting cells: mice receiving adjuvant; for number of splenic IFNγ producing cells, parenteral vaccination: s.c., restimulation with MHC class I-restricted β-Gal peptide (CD8 epitope) (FIG. 10). Here is the method: Experimental protocol: Spleens from vaccinated mice were removed and pooled for analysis of cellular immune responses. The protocol for vaccination was identical to the protocol described in Example 2. Cells were grown in RPMI 1640 supplemented with 10% fetal calf serum, 100 U/ml of penicillin, 50 μg/ml of streptomycin, 5×10^−5 M 2-mercaptoethanol and 1 mM L-glutamine (GIBCO BRL, Karlsruhe, Germany) and maintained at 37° C. in a humidified 5% CO2 atmosphere. […]
For coating ELISPOT plates, said plates were incubated with 100 μl/well of purified capture antibody (10 μg/ml in coating buffer) at 4° C. overnight. After 6× washing steps, the plates were blocked with 200 μl/well of complete RPMI-1640 at room temperature for 1 hour. The activated cells were seeded at 100 μl per well and incubate at 37° C., in a 5% CO2 humidified incubator for 24 hours or 48h hours. After 5× washing steps with washing buffer and 1× step with distilled water, 100 μl/well of the biotinylated detection antibody with a concentration of 1 μg/ml in Assay Diluent was added and incubated at room temperature for 2 hrs. After further washing steps 100 μl/well of the AV-HRP at 1/1000 dilution in Assay Diluent was added and incubated at room temperature for 30 minutes. After further washing steps 100 μl/well of AEC Substrate Solution was added and developed at room temperature for 10-60 minutes until visible spots appeared. After washing steps with (3×) with 200 μl/well distilled water, the plates were air-dried and analyzed by counting the spots by an ELISPOT reader. Each concentration was tested in triplicates.

The test system of test [4] is primary bone marrow-derived murine dendritic cells. Nature of the test: In vitro stimulation of primary bone marrow-derived murine dendritic cells, flow cytometry of surface markers. It is filed as cell-based, BALB/c mice. The settings on record: 10 ng/ml c-diGMP, flow cytometry after 12 h and 24 h, versus no stimulus (FIG. 1). On the procedure: Experimental protocol: primary bone marrow-derived dendritic cell cultures were obtained from BALB/c mice following in vitro maturation of precursors in the presence of recombinant GM-CSF (5×104 U/ml), according to established protocols, e.g. Link, C., etal, 2004, Eur. J. Immuol, 34(3):899-907. Mature dendritic cells were stimulated with 10 ng/ml of E. coli lypopolysaccharide (LPS) or 10 ng/ml c-diGMP. The stimulation of cells was analyzed by flow cytometry to assess the expression of surface markers which are relevant for their antigen presentation capacity after 12 h and 24 h, respectively.
In order to identify compounds which may have potential as adjuvants for in vivo applications in the field of vaccines, a first in vitro screening based on the use of primary cultures of bone marrow-derived dendritic cells was established. Dendritic cells were selected since they represent the most efficient antigen presenting cells and they play a key role in primary immune responses. In fact, they represent the only cell type able to activate resting T cells initiating primary immune responses in vivo. […] At different time intervals, samples were taken, stained with fluorescent-labeled antibodies specific for cellular markers critical for the antigen presenting capacities of dendritic cells, and analyzed by flow cytometry.

Setting [5] is: i.n., average titer of 5 animals (FIG. 12A).
[6] abbreviates: s.c., average titer of 5 animals (FIG. 12B).

Consider `Nc1ncnc2c1ncn2[C@@H]1O[C@@H]2COP(=O)(O)O[C@H]3[C@@H](O)[C@H](n4cnc5c(N)ncnc54)O[C@@H]3COP(=O)(O)O[C@H]2[C@H]1O` [c-diAMP, cyclic bis(3′-5′)diadenylic acid], for which, in test [1] (setting [5]), the “β-gal specific IgG1 in sera, intranasal” value is “strongly increased” and the “β-gal specific IgG2a in sera, intranasal” value was “strongly increased”. Besides, in test [1] (setting [6]), the “β-gal specific IgG1 in sera, subcutaneous” value is “strongly increased” and the “β-gal specific IgG2a in sera, subcutaneous” value is “strongly increased”. Further, in test [2], the “T cell proliferation after i.n. and s.c. administration” value was “statistically significant increment”; the “proliferation of spleen cells, i.n. immunization” value is “efficient proliferative response”; the “proliferation of spleen cells, s.c. immunization” value is “further increase in proliferation”. In addition, in test [3], the “expression of various cytokines” value was “increased expression”, the “splenic IL-2 producing cells” value is “strong expression”, the “splenic IL-4 producing cells” value is recorded as “strong expression” and the “antigen-specific IFNγ secreting cells” value is recorded as “increased in number”. Further, in test [3], the “antigen-specific IL-2 secreting cells” value was “increased in number”; the “antigen-specific IL-4 secreting cells” value is listed as “increased in number”; the “number of splenic IFNγ producing cells, parenteral vaccination” value is recorded as “increment”.
With `Nc1nc2c(ncn2[C@@H]2O[C@@H]3COP(=O)(O)O[C@H]4[C@@H](O)[C@H](n5cnc6c(=O)[nH]c(N)nc65)O[C@@H]4COP(=O)(O)O[C@H]3[C@H]2O)c(=O)[nH]1` [c-diGMP, cyclic bis(3′-5′)diguanylic acid], in test [2], the “T cell proliferation after i.n. and s.c. administration” value is “statistically significant increment”; the “proliferation of spleen cells, i.n. immunization” value was “efficient proliferative response”; the “proliferation of spleen cells, s.c. immunization” value was “further increase in proliferation”. Further, in test [3], the “expression of various cytokines” value is reported as “increased expression”, the “splenic IL-2 producing cells” value is “strong expression”, the “splenic IL-4 producing cells” value was “strong expression” and the “antigen-specific IFNγ secreting cells” value is “increased in number”. For the same compound, in test [3], the “antigen-specific IL-2 secreting cells” value is “increased in number”; the “antigen-specific IL-4 secreting cells” value is reported as “increased in number”; the “number of splenic IFNγ producing cells, parenteral vaccination” value is given as “increment”. Also, the “expression of CD40 on dendritic cells” value in test [4] is “up-regulated”.

(Values after patent US9597391B2, “Cyclic-dinucleotides and its conjugates as adjuvants and their uses in pharmaceutical compositions” (HELMHOLTZ_ZENTRUM FUER INFEKTIONSFORSCHUNG GMBH, priority 2005, dated 2017).)
